We go through 18 molecules from patent US9107410B2, “Pesticidal compositions and processes related thereto” (Dow AgroSciences LLC, priority 2011, dated 2015).

Holding throughout (assay type): in vivo
Assay [1] deals with Beet Armyworm (BAW) (Spodoptera exigua). The assay can be described thus: Bioassay on beet armyworm (BAW), 128-well diet tray assay. Conditions: 168 h, read-out: % Mortality BAW 50 μg/cm^2. Here is the method:
(§1) Certain molecules disclosed in this document were tested against BAW and CEW using procedures described in the following examples. In the reporting of the results, the “BAW & CEW Rating Table” was used (See Table Section).
Bioassays on BAW (Spodoptera exigua)
Bioassays on BAW were conducted using a 128-well diet tray assay. One to five second instar BAW larvae were placed in each well (3 mL) of the diet tray that had been previously filled with 1 mL of artificial diet to which 50 μg/cm^2 of the test compound (dissolved in 50 μL of 90:10 acetone-water mixture) had been applied (to each of eight wells) and then allowed to dry. Trays were covered with a clear self-adhesive cover, and held at 25° C., 14:10 light-dark for five to seven days. Percent mortality was recorded for the larvae in each well; activity in the eight wells was then averaged. The results are indicated in the table entitled “Table: Bio Results” (See Table Section).

For assay [2], the system named is Corn Earworm (CEW) (Helicoverpa zea). The assay can be described thus: Bioassay on corn earworm (CEW), 128-well diet tray assay. To be noted: 168 h, read-out: % Mortality CEW 50 μg/cm^2. Here is the method: as §1
Bioassays on CEW (Helicoverpa zea)
Bioassays on CEW were conducted using a 128-well diet tray assay. One to five second instar CEW larvae were placed in each well (3 mL) of the diet tray that had been previously filled with 1 mL of artificial diet to which 50 μg/cm^2 of the test compound (dissolved in 50 μL of 90:10 acetone-water mixture) had been applied (to each of eight wells) and then allowed to dry. Trays were covered with a clear self-adhesive cover, and held at 25° C., 14:10 light-dark for five to seven days. Percent mortality was recorded for the larvae in each well; activity in the eight wells was then averaged. The results are indicated in the table entitled “Table: Bio Results” (See Table Section).

The subject of assay [3] is Green Peach Aphid (GPA) (Myzus persicae). The assay can be described thus: Bioassay on green peach aphid (GPA), foliar spray on cabbage seedlings. Conditions: 72 h, read-out: % Mortality GPA 200 ppm. Here is the method:
Certain molecules disclosed in this document were tested against GPA using procedures described in the following example. In the reporting of the results, the “GPA Rating Table” was used (See Table Section).
Cabbage seedlings grown in 3-inch pots, with 2-3 small (3-5 cm) true leaves, were used as test substrate. The seedlings were infested with 20-50 GPA (wingless adult and nymph stages) one day prior to chemical application. Four pots with individual seedlings were used for each treatment. Test compounds (2 mg) were dissolved in 2 mL of acetone/methanol (1:1) solvent, forming stock solutions of 1000 ppm test compound. The stock solutions were diluted 5× with 0.025% Tween 20 in H2O to obtain the solution at 200 ppm test compound. A hand-held aspirator-type sprayer was used for spraying a solution to both sides of […] leaves until runoff. Reference plants (solvent check) were sprayed with the diluent only containing 20% by volume of acetone/methanol (1:1) solvent. Treated plants were held in a holding room for three days at approximately 25° C. and ambient relative humidity (RH) prior to grading. Evaluation was conducted by counting the number of live aphids per plant under a microscope. Percent Control was measured by using Abbott's correction formula (W. S. Abbott, “A Method of Computing the Effectiveness of an Insecticide” J. Econ. Entomol. 18 (1925), pp. 265-267) as follows. Corrected % Control=100*(X−Y)/X • where • X=No. of live aphids on solvent check plants and • Y=No. of live aphids on treated plants

Setting [4] is: 50 μg/cm^2 on artificial diet, second instar larvae, 25° C., five to seven days, average of eight wells.
The mark [5] stands for this setting: 200 ppm foliar spray on cabbage seedlings, graded after three days, Abbott corrected % control.

Like-named read-outs stand apart in the source and are kept apart here.

Turning to `FC(F)(F)Oc1ccc(-n2cnc(-c3ccc(C4CC4NC(=S)Nc4ccc(C(F)(F)F)cc4)cc3)n2)cc1` (stereo not drawn) [Compound 8, 1-(2-{4-[1-(4-Trifluoromethoxyphenyl)-1H-[1,2,4]triazol-3-yl]phenyl}-cyclopropyl)-3-(4-trifluoromethylphenyl)thiourea], the mortality at 50 µg/cm2 in assay [1] (setting [4]) and in assay [2] (setting [4]) was 50 to 100% each time. Also, the mortality at 200 ppm in assay [3] (setting [5]) lay within 0 to 80%.

On to `Cc1cc(C)c(NC(=S)NC2CC2c2ccc(-c3ncn(-c4ccc(OC(F)(F)F)cc4)n3)cc2)c(C)c1` (stereo not drawn) [Compound 9, 1-(2-{4-[1-(4-Trifluoromethoxyphenyl)-1H-[1,2,4]triazol-3-yl]phenyl}-cyclopropyl)-3-(2,4,6-trimethylphenyl)thiourea], for which the mortality at 50 µg/cm2 in assay [1] (setting [4]) and in assay [2] (setting [4]) was 50 to 100% throughout. Besides, the mortality at 200 ppm in assay [3] (setting [5]) was found to be 0%.

As to `COc1ccc(NC(=S)NC2CC2c2ccc(-c3ncn(-c4ccc(OC(F)(F)F)cc4)n3)cc2)c(OC)c1` (stereo not drawn) [Compound 10, 1-(2,4-Dimethoxyphenyl)-3-(2-{4-[1-(4-trifluoromethoxyphenyl)-1H-[1,2,4]triazol-3-yl]phenyl}cyclopropyl)thiourea], the mortality at 50 µg/cm2 in assay [1] (setting [4]) and in assay [2] (setting [4]) was 50 to 100% throughout. In addition, the mortality at 200 ppm in assay [3] (setting [5]) lay within 0 to 80%.

For `Cc1ccc(NC(=S)NC2CC2c2ccc(-c3ncn(-c4ccc(OC(F)(F)F)cc4)n3)cc2)c(C)c1` (stereo not drawn) [Compound 11, 1-(2,4-Dimethylphenyl)-3-(2-(4-(1-(4-(trifluoromethoxy)phenyl)-1H-1,2,4-triazol-3-yl)phenyl)cyclopropyl)thiourea], the mortality at 50 µg/cm2 in assay [1] (setting [4]) and in assay [2] (setting [4]) was 50 to 100% each time. In addition, the mortality at 200 ppm in assay [3] (setting [5]) was in the range of 0 to 80%.

Take `Cc1cccc(C)c1NC(=S)NC1CC1c1ccc(-c2ncn(-c3ccc(OC(F)(F)F)cc3)n2)cc1` (stereo not drawn) [Compound 12, 1-(2,6-Dimethylphenyl)-3-(2-(4-(1-(4-(trifluoromethoxy)phenyl)-1H-1,2,4-triazol-3-yl)phenyl)cyclopropyl)thiourea]: the mortality at 50 µg/cm2 in assay [1] (setting [4]) and in assay [2] (setting [4]) was 50 to 100% throughout. Moreover, the mortality at 200 ppm in assay [3] (setting [5]) fell in the range of 0 to 80%.

For `COc1ccc(NC(=S)NC2CC2c2ccc(-c3ncn(-c4ccc(OC(F)(F)F)cc4)n3)cc2)c(C(C)C)c1` (stereo not drawn) [Compound 13, 1-(2-Isopropyl-4-methoxyphenyl)-3-(2-(4-(1-(4-(trifluoromethoxy)phenyl)-1H-1,2,4-triazol-3-yl)phenyl)cyclopropyl)thiourea], the mortality at 50 µg/cm2 in assay [1] (setting [4]) and in assay [2] (setting [4]) was 50 to 100% each time. Besides, the mortality at 200 ppm in assay [3] (setting [5]) was found to be 0%.

As for `COc1cc(C)c(NC(=S)NC2CC2c2ccc(-c3ncn(-c4ccc(OC(F)(F)F)cc4)n3)cc2)c(C)n1` (stereo not drawn) [Compound 14, 1-(6-Methoxy-2,4-dimethylpyridin-3-yl)-3-(2-(4-(1-(4-(trifluoromethoxy)-phenyl)-1H-1,2,4-triazol-3-yl)phenyl)cyclopropyl)thiourea], the mortality at 50 µg/cm2 in assay [1] (setting [4]) and in assay [2] (setting [4]) was 50 to 100% in each case. In addition, the mortality at 200 ppm in assay [3] (setting [5]) fell in the range of 0 to 80%.

On to `CC(C)(C)OC(=O)NC1CC1c1ccc(-c2ncn(-c3ccc(OC(F)(F)F)cc3)n2)cc1` (stereo not drawn) [Compound 17, tert-Butyl 2-(4-(1-(4-(trifluoromethoxy)phenyl)-1H-1,2,4-triazol-3-yl)phenyl)-cyclopropylcarbamate], for which the mortality at 50 µg/cm2 in assay [1] (setting [4]) and in assay [2] (setting [4]) was 50 to 100% in each case. The mortality at 200 ppm in assay [3] (setting [5]) worked out at 0%.

Take `COC(=O)NC1CC1c1ccc(-c2ncn(-c3ccc(OC(F)(F)F)cc3)n2)cc1` (stereo not drawn) [Compound 18, Methyl 2-(4-(1-(4-(trifluoromethoxy)phenyl)-1H-1,2,4-triazol-3-yl)phenyl)cyclopropyl-carbamate]: the mortality at 50 µg/cm2 in assay [1] is 0%; in assay [2], 0 to 50%. In assay [3] (foliar), the mortality at 200 ppm came to 0%.

In the case of `CC(OC(=O)NC1CC1c1ccc(-c2ncn(-c3ccc(OC(F)(F)F)cc3)n2)cc1)c1ccccc1` (stereo not drawn) [Compound 19, 1-Phenylethyl 2-(4-(1-(4-(trifluoromethoxy)phenyl)-1H-1,2,4-triazol-3-yl)phenyl)-cyclopropylcarbamate], the figures for the mortality at 50 µg/cm2 in assay [1] and in assay [2] were 0% and 50 to 100%, respectively. For the same molecule, the mortality at 200 ppm in assay [3] (foliar) is 0 to 80%.

As for `CC(OC(=O)NC1CC1c1ccc(-c2ncn(-c3ccc(OC(F)(F)F)cc3)n2)cc1)c1ccccn1` (stereo not drawn) [Compound 20, 1-(Pyridin-2-yl)ethyl 2-(4-(1-(4-(trifluoromethoxy)phenyl)-1H-1,2,4-triazol-3-yl)phenyl)-cyclopropylcarbamate], the mortality at 50 µg/cm2 in assay [1] and in assay [2] was 50 to 100% in each case. Further, the mortality at 200 ppm in assay [3] (foliar) was 0 to 80%.

Turning to `O=C(NC1CC1c1ccc(-c2ncn(-c3ccc(OC(F)(F)F)cc3)n2)cc1)Oc1ccccc1` (stereo not drawn) [Compound 21, Phenyl 2-(4-(1-(4-(trifluoromethoxy)phenyl)-1H-1,2,4-triazol-3-yl)phenyl)cyclopropyl-carbamate], the mortality at 50 µg/cm2 in assay [1] and in assay [2] was 50 to 100% throughout. The mortality at 200 ppm in assay [3] (foliar) is 0%.

On to `Cc1cc(F)ccc1OC(=O)NC1CC1c1ccc(-c2ncn(-c3ccc(OC(F)(F)F)cc3)n2)cc1` (stereo not drawn) [Compound 22, 4-Fluoro-2-methylphenyl 2-(4-(1-(4-(trifluoromethoxy)phenyl)-1H-1,2,4-triazol-3-yl)-phenyl)cyclopropylcarbamate], for which the mortality at 50 µg/cm2 in assay [1] and in assay [2] was 50 to 100% in each case. Besides, the mortality at 200 ppm in assay [3] (foliar) worked out at 0%.

As for `O=C(NC1CC1c1ccc(-c2ncn(-c3ccc(OC(F)(F)F)cc3)n2)cc1)Oc1ccccc1C1CCCC1` (stereo not drawn) [Compound 23, 2-Cyclopentylphenyl 2-(4-(1-(4-(trifluoromethoxy)phenyl)-1H-1,2,4-triazol-3-yl)phenyl)-cyclopropylcarbamate], the mortality at 50 µg/cm2 in assay [1] is 0%; in assay [2] it was 50 to 100%. In addition, in assay [3] (foliar), the mortality at 200 ppm was in the range of 0 to 80%.

For the molecule `CC(C)(C)c1ccccc1OC(=O)NC1CC1c1ccc(-c2ncn(-c3ccc(OC(F)(F)F)cc3)n2)cc1` (stereo not drawn) [Compound 24, 2-tert-Butylphenyl 2-(4-(1-(4-(trifluoromethoxy)phenyl)-1H-1,2,4-triazol-3-yl)phenyl)-cyclopropylcarbamate], the values for the mortality at 50 µg/cm2 in assay [1] and in assay [2] were 50 to 100% and 0%, respectively. In addition, the mortality at 200 ppm in assay [3] (foliar) lay in the range of 0 to 80%.

Take `O=C(NC1CC1c1ccc(-c2ncn(-c3ccc(OC(F)(F)F)cc3)n2)cc1)Oc1ccccc1C(F)(F)F` (stereo not drawn) [Compound 25, 2-(Trifluoromethyl)phenyl 2-(4-(1-(4-(trifluoromethoxy)phenyl)-1H-1,2,4-triazol-3-yl)-phenyl)cyclopropylcarbamate]: the mortality at 50 µg/cm2 in assay [1] and in assay [2] was 0% in each case. In addition, the mortality at 200 ppm in assay [3] (foliar) lay within 0 to 80%.

For the molecule `Cc1cc(C)c(OC(=O)NC2CC2c2ccc(-c3ncn(-c4ccc(OC(F)(F)F)cc4)n3)cc2)c(C)c1` (stereo not drawn) [Compound 26, Mesityl 2-(4-(1-(4-(trifluoromethoxy)phenyl)-1H-1,2,4-triazol-3-yl)phenyl)cyclopropyl-carbamate], the figures for the mortality at 50 µg/cm2 in assay [1] and in assay [2] were 50 to 100% and 0 to 50%, respectively. Also, the mortality at 200 ppm in assay [3] (foliar) came to 0%.

As to `COc1ccc(OC(=O)NC2CC2c2ccc(-c3ncn(-c4ccc(OC(F)(F)F)cc4)n3)cc2)cc1` (stereo not drawn) [Compound 27, 4-Methoxyphenyl 2-(4-(1-(4-(trifluoromethoxy)phenyl)-1H-1,2,4-triazol-3-yl)phenyl)-cyclopropylcarbamate], the mortality at 50 µg/cm2 in assay [1] fell in the range of 0 to 50%; in assay [2], 50 to 100%. Moreover, the mortality at 200 ppm in assay [3] (foliar) is 0%.
